Assay [1] relates to MDA-MB-231 cells. In words: Soft-agar colony forming assay, MDA-MB-231. In kind it is cell-based. To be noted: MDA-MB-231, soft agar, 20 μM. The procedure: It was hypothesized that the specific binding of MC-1-F2 can lead to its specific cellular activity against cancer cells with high FOXC2 expression. This hypothesis was tested by evaluating MC-1-F2's cellular activity on cell lines with different FOXC2 expression levels: MCF-7, BT549, and MDA-MB-231. […] However, further studies are still underway. The specificity in cellular activity of MC-1-F2 was further evaluated in the form of a soft-agar colony forming assay to determine if MC-1-F2 was able to inhibit in vitro tumorigenicity of cancer cells in a FOXC2 expression-dependent manner. […] Further testing is underway in various breast cancer cell lines with different FOXC2 expression levels.
Soft-agar colony-formation assay was performed in 6-well plates. 5×10^3 cells were re-suspended into 1.5 mL 0.3% agarose-DMEM mixture, and seeded onto the 0.5% agarose-DMEM base layer. FBS-supplemented DMEM medium (0.2 mL) containing the compound of determined concentrations was added on the top and changed every 3 days. After 10 days incubation in 37° C. incubator with 5% CO2, 0.5 mL of 0.005% crystal violet solution was added to the top of the agarose gel and incubated overnight. The total number of colonies per well that were >100 microns in size when viewed under a simple microscope were counted. Light microscopy images were captured under 20× magnification.

The test system of assay [2] is MDA-MB-231 cells. In words: Wound healing assay, MDA-MB-231. In kind it is cell-based. To be noted: MDA-MB-231, 20 μM, 24 hours. The procedure: (§1) Reversal of EMT mediated by MC-1-F2 was anticipated to lead to the inhibition of metastatic capability of cancer cells. […] A wound healing assay was carried out to examine the migratory capabilities of cells in closing a “wound” or gap over a period of 24 hours. […] Inhibition of migratory capabilities of cells only measures one aspect of EMT progression. EMT is marked also by increased invasiveness of cancer cells. Therefore, the invasive property of MDA-MB-231 cells treated with MC-1-F2 was examined (FIGS. 6B&C).
3×10^5 cells of MDA-MB-231 in 70 μL of DMEM media were seeded on an ibidi μ-dish (Ibidi) and incubated for 24 hours. The insert was removed carefully with tweezers, to create the “wound” and the dish rinsed with DPBS. Followed by the addition of DMEM media with applicable drug. Images were taken at various time points and monitoring of the migration of cells into the “gap” was recorded at several time points.

Assay [3] deals with MDA-MB-231 cells. Briefly: Transwell invasion assay, MDA-MB-231. In kind it is cell-based. To be noted: MDA-MB-231, 20 μM, 24 hours. The procedure: as §1
Matrigel invasion chambers (Corning) were allowed to come to room temperature and allowed to rehydrate for 2 hours in a cell incubator. Cells were treated 24 hours prior to assay and starved in 2% FBS in DMEM for 2 hours prior to assay. A cell suspension containing 5×10^4 cells/mL was prepared. Chemoattractant (DMEM+10% FBS) was added to the bottom of the wells. Using forceps, the inserts were transferred inside the wells and 0.5 mL of cell suspension was immediately added. The chambers were incubated for 22 hours in a humidified tissue culture incubator. After the 22 hours, the non-invading cells were removed by scrubbing the surface of the membrane. […] The cells were stained with 0.5% crystal violet solution and several images of the wells were then taken and total number of cells counted for analysis.

Assay [4] concerns the target T1, DNA binding domain (DBD) of FOXC2 (Homo sapiens, UniProt Q99958).
T1 construct: His6 (N, cleaved yes); MBP (N, cleaved yes); made in house; host or cells: E. coli BL21(DE3)-RIPL
T1 sequence (Q99958 60-163): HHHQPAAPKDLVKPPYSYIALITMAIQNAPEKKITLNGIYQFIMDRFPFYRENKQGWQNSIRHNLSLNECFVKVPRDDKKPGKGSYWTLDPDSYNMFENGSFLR
Briefly: ELISA-like binding assay, immobilized DNA binding domain of FOXC2. To be noted: biotinylated compound. As to the method: The binding affinity of MC-1-F2 to full-length FOXC2 was determined using an ELISA-like binding assay. In this assay, varying concentrations of biotinylated MC-1-F2 or biotinylated MC-C (control; FIG. 12) were incubated in the wells with immobilized recombinant full-length FOXC2 or the DNA binding domain (DBD) of FOXC2 (FIG. 2A). After washing off unbound ligand, the wells were incubated with streptavidin-conjugated Qdot655, followed by fluorescence measurement of the wells using a plate reader. […] This is important for the specificity of MC-1-F2 to FOXC2 as several forkhead transcription factors share a very similar DNA-binding domain.
Clear bottom, black wall, 96 well plate (Corning) was coated with 1 μg/mL of full length FOXC2 or DNA binding domain (DBD) of FOXC2 protein in sensitizing buffer (0.621 g NaHCO3, 0.275 g Na2CO3 in 100 mL of water pH=9.5) overnight at 4° C. Wells were washed 3 times with 200 μL of wash buffer (lx PBS with 0.05% Tween-20). Wells were blocked with blocking buffer (1% BSA in 1×PBS with 0.05% Tween-20) for 1 hour at room temperature. 50 μL of serial dilutions of biotinylated compound in blocking buffer were added to each well and incubated for 1 hour at room temperature. Followed was the addition of […] of 20 nM of strepavidin-Qdot655 in blocking buffer for 1 hour at room temperature. […] Fluorescence was measured using a plate reader (Ex. 495, Em. 655).

For assay [5], the system named is DU145 cells. In words: MTT cell viability assay, DU145. The format is cell-based. To be noted: Homo sapiens, DU-145, 24 hour treatment. As to the method:
In order to determine the EC50 of MC-1-F2, an MTT assay on cell viability was performed in both DU145 and PC3.
Cell viability was assessed by MTT (3-(4,5-Dimethylthiazol-2-yl)-2,5-Diphenyltetrazolium Bromide) assay 5,000 cells were seeded on a 96-well cell culture plate and were incubated for at least 24 hours prior to drug treatment. The MTT reagent (Fisher Scientific) was added to the culture medium 3 hours prior to the end of compound incubation. The reaction took place in the 37° C. incubator with 5% CO2 for 3 hours. Cell culture medium was then removed from the wells. Cells with the insoluble purple formazan were lysed with DMSO for 10 mins at room temperature, 200 μL per well. Absorbance was read at 570 nm using a plate reader.
In general terms: Formazan colour is commonly taken as a measure of viable cells.

In general, Kd refers to the equilibrium constant for the complex coming apart. The low end stands for tighter binding, the high end for weaker binding. The EC50 is the concentration at which the effect is half-maximal. Consider `N=C(N)NCCCCNc1nc(Nc2ccc(Oc3ccccc3)cc2)nc(N2CCN(c3nc(N)nc(Nc4ccc(N5CCOCC5)cc4)n3)CC2)n1` [MC-1-F2], for which, in assay [1], the colony forming activity result was “strong inhibition of colony forming activity”. Besides, the “migratory activity / wound closure” value in assay [2] is “inhibition of the migratory activity”. The “invasive property (transwell invasion)” value in assay [3] is “decrease in the invasive property”. The compound also returned a Kd in assay [4] of over 100 µM. The compound further gave an EC50 in assay [5] of 48.1 µM.

The record behind these values is patent publication US10814010B2, “FOXC2 inhibitor and methods of use thereof” (The Board of Regents of The University of Texas System, priority 2018, dated 2020).
